pEC50: −log10 of the molar value.
What was measured:
primary human T-cells [1] = experiment: IL2 secretion measurements (24 h, CD3-stimulated T-cells, PBS counter screen); assay type: cell-based; conditions: for Emax IL2 (% activation): CD3 condition, normalised to DMSO (neutral) and 20 μM reference compound A1 = 100%; for pEC50: Homo sapiens, T-cell, CD3-stimulated primary human T-cells, IL2 secretion, fitted sigmoidal curve, read-out: Tcell IL2 CD3 EC50
Description: (§1) As readouts for T-cell activation, 1L2 secretion after 24 hours and proliferation after 5 days was measured. Increases in IL2 secretion and proliferation upon compound treatment were assessed as the % of the maximum of reference compound A1. WO 2016/139181 discloses reference compound A1 as example 70. As a counter screen and to make sure that no unwanted TCR-independent activation was triggered, PBS conditions were run for all compounds.
Expanded primary human T-cells were thawed and cultured in RPMI 1640 (Gibco, #61870-010)+5% human serum (HS, Sigma, #H3667)+1 mM Sodium Pyruvate (Gibco, #11360-039)+50 μM 2-mercaptoethanol (Gibco, #31350-010) and 1× Pen-Strep (Life Technologies, #15140122) medium at density of 2 Mio/ml for 3 hours in 5% CO2, 37° C. and 95% humidity. For coating of plates, […] or PBS++ with CD3 antibody (concentration depending on donor and determined by CD3 titrations) was added 100 μl/well to Poly-D Lysine coated 96-well plates. Plates were sealed and incubated at room temperature for 3 hours on a table-top rocking platform. After incubation, plates were washed once with PBS−− and filled with 40 μl/well culture medium only. Compounds were then added (see next section) to medium only plates. After 3 hours of culturing the T-cells, cells were filtered through a cell strainer (Miltenyi Biotech, #130-041-407), counted again and concentration was adjusted to 1.25 Mio/ml.
Cells were then seeded 80 μl/well to the 40 μl/well including dispensed compounds according to plate layout. By adding cells, compounds were further diluted 1:3, and resulting in 100 k cells/120 μl/well. After 24 hours 40 μl of supernatant was collected carefully from the top while not disturbing the cells and transferred into a round bottom 96 well plate. Collected and frozen supernatant was used for detection of IL2 using the IL-2 Human ProQuantum Immunoassay Kit (Invitrogen) or using the Human IL-2 ELISA Kit (Thermo Fisher).
(§2) Compounds were added in a 5 or 6 pt dose response with the Tecan D300e Digital Dispenser, all conditions 3 times more concentrated than the end-concentration, since cells are added afterwards (80 μl cells to 40 μl prepared medium with treatment). The DR was starting at 20 μM or 10 μM final top concentration and a dilution factor of 3.333. The positive control was the reference compound A1 that was added in a dose response as well, additionally to 3 wells of only 20 μM representing the positive stimulator control. All wells were normalized with DMSO to a final concentration of 0.6% (0.2% end-concentration).
The immunoassay is done following the manufacturer's manual (Invitrogen, #A35603). Additional information: For the immunoassay, MicroAmp™ EnduraPlate™ Optical 384-Well plates are used. Frozen supernatant is thawed and centrifuged for 5 minutes at 1000×g, both steps at 4° C. After centrifugation, required sample amount is taken from the top, and in a separate LightCycler V-bottom plate (working plate) diluted with assay dilution buffer, dilution factor depending on the PBS or CD3 condition but at least 1:3. IL-2 standard and blanks are prepared in the same V-bottom plate, standard with a range of 0.0128-5000 pg/ml (extended version). After preparation, 5 μl of sample dilutions or standard/blanks are transferred to the optical 384-well plate (assay plate) and the 10 μl reaction protocol is being followed. For measurement, the QuantStudio 12K Flex system is used. Raw data is extracted and IL-2 concentrations are calculated with the Thermo Fisher online app (apps.thermofisher.com/apps/proquantum).
ELISA is done following the manufacturer's manual (Thermo Fisher Scientific, #88-7025-88). Additional information: For the ELISA Nunc MaxiSorp 96 well plates are used. Frozen supernatant is thawed and centrifuged for 5 minutes at 1000×g, both steps at 4° C. […]

primary human T-cells [2] = experiment: Proliferation assay (5 days, CellTiter-Glo, CD3-stimulated T-cells); assay type: cell-based; conditions: for Emax proliferation (% activation): CD3 condition, normalised to DMSO (neutral) and 20 μM reference compound A1 = 100%; for pEC50: Homo sapiens, T-cell, 120 h, CD3-stimulated primary human T-cells, 5 days, CellTiter-Glo, fitted sigmoidal curve, read-out: Tcell Proliferation CD3 EC50
Description: as §1
Expanded primary human T-cells are thawed and cultured in RPMI 1640 (Gibco, #61870-010)+5% human serum (HS, Sigma, #H3667)+1 mM Sodium Pyruvate (Gibco, #11360-039)+50 μM 2-mercaptoethanol (Gibco, #31350-010) and 1× Pen-Strep (Life Technologies, #15140122) medium at density of 2 Mio/ml for 3 hours in 5% CO2, 37° C. and 95% humidity. For coating of plates, PBS++ only or PBS++ with CD3 antibody (concentration depending on donor and determined by CD3 titrations) is added 100 μl/well to Poly-D Lysine coated 96-well plates. Plates are sealed and incubated at room temperature for 3 hours on a table-top rocking platform. After incubation, plates are washed once with PBS−− and filled with 40 μl/well culture medium only. Compounds are then added (see next section) to medium only plates. After 3 hours of culturing the T-cells, cells are filtered through a cell strainer (Miltenyi Biotech, #130-041-407), counted again and concentration is adjusted to 1.25 Mio/ml.
Cells are then seeded 80 μl/well to the 40 μl/well including dispensed compounds according to plate layout. By adding cells, compounds are further diluted 1:3, and resulting in 100 k cells/120 μl/well. After 48 hours 40 μl of supernatant is collected carefully from the top while not disturbing the cells. Cells are assessed for proliferation 5 days later by measuring […] using CellTiterGlo (Promega).
as §2
After 5 days, for detection of ATP which is directly proportional to the number of cells present per well, the CellTiter-Glo® 2.0 Reagent is used. After visual control for toxicity or precipitations of the tested compounds, the plates are equilibrated to room temperature for 45 minutes. CellTiter-Glo® 2.0 Reagent is equilibrated to room temperature as well. After equilibration, an equal amount of CellTiter-Glo reagent is added to the cells (80 μl/well) with an electronic multichannel pipette. Plates are placed on a rocking platform for 15 minutes at room temperature. After incubation, the bottom of the plates is sealed with backing tape. Luminescence is measured with PHERAstar FSX (interval time 0.5 sec, gain 3000, focal height 15 mm) and exported as CSV file for analysis in Genedata screener.
CD3 and PBS plates were analysed separately in Genedata Screener using Roche Normalization PCT_POS_CTRL with DMSO set as Neutral Control and 20 μM of the reference compound A1 set as Stimulator Control/100%.
For CD3 conditions EC50 and Emax of the fitted sigmoidal curve were reported. If no curve could be fitted, the EC50 was reported as blank field and the Emax was based on individual data points. […] Compounds which activate unstimulated cells (see IL2 measurements) or compounds which negatively affected viability were flagged.

Structure (SMILES)	Emax IL2 (% activation) (primary human T-cells [1])	pEC50 (primary human T-cells [1])	Emax proliferation (% activation) (primary human T-cells [2])	pEC50 (primary human T-cells [2])
CC(C)(C)c1nnc(-c2ccc3c(c2)N(Cc2ccc(-c4nc(C(F)(F)F)no4)cc2)C(=O)[C@@H](N)CS3(=O)=O)o1 [Example 26, (3R)-3-amino-7-(5-tert-butyl-1,3,4-oxadiazol-2-yl)-1,1-dioxo-5-[[4-[3-(trifluoromethyl)-1,2,4-oxadiazol-5-yl]phenyl]methyl]-2,3-dihydro-1λ^6,5-benzothiazepin-4-one]	155	5.80	184	6.52
CC(C)(C)c1nnc(-c2ccc3c(c2)N(Cc2ccc(-c4nc(C5CC5)no4)cc2)C(=O)[C@@H](N)CS3(=O)=O)o1 [Example 29, (3R)-3-amino-7-(5-tert-butyl-1,3,4-oxadiazol-2-yl)-5-[[4-(3-cyclopropyl-1,2,4-oxadiazol-5-yl)phenyl]methyl]-1,1-dioxo-2,3-dihydro-1λ^6,5-benzothiazepin-4-one]	156	6.02	208	6.07
CC(C)(C)c1nnc(-c2ccc3c(c2)N(Cc2ccc(-c4cc(C(F)(F)F)on4)cc2)C(=O)[C@@H](N)CS3(=O)=O)o1 [Example 30, (3R)-3-amino-7-(5-tert-butyl-1,3,4-oxadiazol-2-yl)-1,1-dioxo-5-[[4-[5-(trifluoromethyl)isoxazol-3-yl]phenyl]methyl]-2,3-dihydro-1λ^6,5-benzothiazepin-4-one]	117	5.45	139	5.36
CC(C)(C)c1nnc(-c2ccc3c(c2)N(Cc2ccc(-c4cc(C(F)(F)F)no4)cc2)C(=O)[C@@H](N)CS3(=O)=O)o1 [Example 31, (3R)-3-amino-7-(5-tert-butyl-1,3,4-oxadiazol-2-yl)-1,1-dioxo-5-[[4-[3-(trifluoromethyl)isoxazol-5-yl]phenyl]methyl]-2,3-dihydro-1λ^6,5-benzothiazepin-4-one]	133	6.04	83	6.46
CC(C)(C#N)c1nnc(-c2ccc3c(c2)N(Cc2ccc(-c4ccc(C(F)F)cn4)cc2)C(=O)[C@@H](N)CS3(=O)=O)o1 [Example 40, 2-[5-[(3R)-3-amino-5-[[4-[5-(difluoromethyl)-2-pyridyl]phenyl]methyl]-1,1,4-trioxo-2,3-dihydro-1λ^6,5-benzothiazepin-7-yl]-1,3,4-oxadiazol-2-yl]-2-methyl-propanenitrile]	105	5.42	118	5.61
N[C@H]1CS(=O)(=O)c2ccc(-c3nnc(C4(N)CCCCC4)o3)cc2N(Cc2ccc(-c3noc(C4CCC(F)(F)C4)n3)cc2)C1=O (stereo partly drawn) [Example 44, (3R)-3-amino-7-[5-(1-aminocyclohexyl)-1,3,4-oxadiazol-2-yl]-5-[[4-[5-(3,3-difluorocyclopentyl)-1,2,4-oxadiazol-3-yl]phenyl]methyl]-1,1-dioxo-2,3-dihydro-1λ^6,5-benzothiazepin-4-one]	112	5.98	124	6.13
CC(C)(C#N)c1nnc(-c2ccc3c(c2)N(Cc2ccc(-c4nc(C5CC5)no4)cc2)C(=O)[C@@H](N)CS3(=O)=O)o1 [Example 139, 2-[5-[(3R)-3-amino-5-[[4-(3-cyclopropyl-1,2,4-oxadiazol-5-yl)phenyl]methyl]-1,1,4-trioxo-2,3-dihydro-1λ^6,5-benzothiazepin-7-yl]-1,3,4-oxadiazol-2-yl]-2-methyl-propanenitrile]			93	5.99
N#CC1(c2nnc(-c3ccc4c(c3)N(Cc3ccc(-c5ccc(OC(F)(F)F)cn5)cc3)C(=O)[C@@H](N)CS4(=O)=O)o2)CCOC1 (stereo partly drawn) [Example 177, 3-[5-[(3R)-3-amino-1,1,4-trioxo-5-[[4-[5-(trifluoromethoxy)-2-pyridyl]phenyl]methyl]-2,3-dihydro-1λ^6,5-benzothiazepin-7-yl]-1,3,4-oxadiazol-2-yl]tetrahydrofuran-3-carbonitrile]			101	6.09
N[C@H]1CS(=O)(=O)c2ccc(-c3nnc(C4(N)CC(F)(F)C4)o3)cc2N(Cc2ccc(-c3ccc(OC(F)(F)F)cn3)cc2)C1=O [Example 179]			106	6.03
CN1CCC(C#N)(c2nnc(-c3ccc4c(c3)N(Cc3ccc(-c5ccc(OC(F)(F)F)cn5)cc3)C(=O)[C@@H](N)CS4(=O)=O)o2)CC1 [Example 180, 4-[5-[(3R)-3-amino-1,1,4-trioxo-5-[[4-[5-(trifluoromethoxy)-2-pyridyl]phenyl]methyl]-2,3-dihydro-1λ^6,5-benzothiazepin-7-yl]-1,3,4-oxadiazol-2-yl]-1-methyl-piperidine-4-carbonitrile]			102	6.19
